According to the supplement of paper PMC11061612:

Key:
[1] = test system: CHSA8926 (Chondrosarcoma); test: Bliss excess, mean over the matrix (fraction); higher = more synergy
Summary of the method: (§1)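 Cell lines in DMEM/F12 or RPMI with 10% FBS were plated in 1536-well plates, held 24 hours at 37°C, 5% CO2, then given two-drug dose matrices for 72 hours (DMSO typically 0.2%). Viability was read by CellTiter-Glo 2.0 luminescence and scaled as inhibition from 0 (vehicle wells) to 1 (blank wells). Combination Emax is the second-highest inhibition in the matrix; Bliss excess is observed combination effect minus expected EA + EB − EA·EB, EA and EB being single-agent effects.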

[2] = test system: DAN-G (Pancreatic Carcinoma); test: as above
Summary of the method: as §1

G-361 (Melanoma) = test: as above
Summary of the method: as §1

[3] = test system: HCC1187 (Breast Carcinoma); test: as above
Summary of the method: as §1

[4] = test system: IM-95 (Gastric Carcinoma); test: as above
Summary of the method: as §1

[5] = test system: JHH-4 (Hepatocellular Carcinoma); test: as above
Summary of the method: as §1

[6] = test system: KP-3 (Pancreatic Carcinoma); test: as above
Summary of the method: as §1

[7] = test system: KY821 (Acute Myeloid Leukemia); test: as above
Summary of the method: as §1

[8] = test system: KYSE-270 (Esophageal Squamous Cell Carcinoma); test: as above
Summary of the method: as §1

M059J (Glioblastoma) = test: as above
Summary of the method: as §1

[9] = test system: MN-60 (B-Lymphoblastic Leukemia); test: as above
Summary of the method: as §1

[10] = test system: MOG-G-CCM (Low Grade Glioma); test: as above
Summary of the method: as §1

[11] = test system: MOLM-13 (Acute Myeloid Leukemia); test: as above
Summary of the method: as §1

[12] = test system: NCCIT (Other Solid Carcinomas); test: as above
Summary of the method: as §1

[13] = test system: NCI-H526 (Small Cell Lung Carcinoma); test: as above
Summary of the method: as §1

[14] = test system: NCI-H929 (Plasma Cell Myeloma); test: as above
Summary of the method: as §1

[15] = test system: PC-3 (Prostate Carcinoma); test: as above
Summary of the method: as §1

SJSA-1 (Osteosarcoma) = test: as above
Summary of the method: as §1

[16] = test system: SUP-B15 (B-Lymphoblastic Leukemia); test: as above
Summary of the method: as §1

[17] = test system: KU812 (Chronic Myelogenous Leukemia); test: combination Emax (second highest fraction inhibited in the dose matrix, 72 h); higher = more inhibition; extreme values may be limits of the assay
Summary of the method: as §1
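Throughout, for Bliss excess, mean over the matrix: after 72 h of two-drug dosing.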

Row | Structure (SMILES) | Bliss excess [1] | Bliss excess [2] | Bliss excess (G-361 (Melanoma)) | Bliss excess [3] | Bliss excess [4] | Bliss excess [5] | Bliss excess [6] | Bliss excess [7] | Bliss excess [8] | Bliss excess (M059J (Glioblastoma)) | Bliss excess [9] | Bliss excess [10] | Bliss excess [11] | Bliss excess [12] | Bliss excess [13] | Bliss excess [14] | Bliss excess [15] | Bliss excess (SJSA-1 (Osteosarcoma)) | Bliss excess [16] | combination Emax [17]
1 | Cc1nc(Nc2ncc(C(=O)Nc3c(C)cccc3Cl)s2)cc(N2CCN(CCO)CC2)n1 [Dasatinib] + CC(=O)Nc1cccc(-n2c(=O)n(C3CC3)c(=O)c3c(Nc4ccc(I)cc4F)n(C)c(=O)c(C)c32)c1 [Trametinib] (first compound max 2 µM, 7x7, partner max 1 µM) | -0.194 | 0.138 | -0.0282 | -0.0367 | -0.0551 | -0.116 | 0.0304 | -0.144 | -0.0142 | -0.0946 | -0.029 | -0.0782 | 0.0284 | -0.0842 | -0.0323 | -0.075 | -0.0759 | 0.0005 | -0.0562 | 1
2 | CC1(C)CCC(CN2CCN(c3ccc(C(=O)NS(=O)(=O)c4ccc(NCC5CCOCC5)c([N+](=O)[O-])c4)c(Oc4cnc5[nH]ccc5c4)c3)CC2)=C(c2ccc(Cl)cc2)C1 [Venetoclax] + C=CCn1c(=O)c2cnc(Nc3ccc(N4CCN(C)CC4)cc3)nc2n1-c1cccc(C(C)(C)O)n1 [AZD1775] (first compound max 1 µM, partner max 1 µM) | -0.0333 | -0.0114 | -0.0214 | -0.0522 | 0.0197 | -0.0538 | -0.0085 | -0.0104 | 0.0742 | -0.0663 | -0.0285 | 0.0303 | 0.0122 | 0.0522 | -0.0183 | 0.0499 | 0.0286 | -0.0733 | 0.0509 | 0.776
3 | COc1cccc(OCCCN)c1-c1cc(Nc2cnc(C#N)cn2)n[nH]1 [Prexasertib] + O=C(c1cc(Cc2n[nH]c(=O)c3ccccc23)ccc1F)N1CCN(C(=O)C2CC2)CC1 [Olaparib] (first compound max 1 µM, 7x7, partner max 10 µM) | -0.0147 | -0.0164 | -0.0411 | -0.0164 | -0.0102 | 0.0296 | -0.0444 | -0.0266 | -0.0789 | -0.0643 | -0.0494 | -0.053 | -0.0224 | -0.103 | -0.0214 | -0.0638 | -0.0355 | -0.0639 | -0.0191 | 0.796
4 | NC1(C(=O)N[C@@H](CCO)c2ccc(Cl)cc2)CCN(c2ncnc3[nH]ccc23)CC1 [Capivasertib] + CC(C)n1c(=O)n(C)c2cnc3cc(F)c(-c4ccc(OCCCN5CCCCC5)nc4)cc3c21 [AZD1390] (first compound max 10 µM, 7x7, partner max 0.3 µM) | -0.111 | -0.111 | -0.0344 | -0.0424 | -0.0656 | -0.0504 | -0.0596 | -0.021 | -0.0296 | 0.0135 | -0.0685 | -0.0302 | -0.067 | -0.0628 | 0.0062 | -0.0187 | -0.0345 | -0.0843 | -0.0059 | 0.48
5 | NC1(C(=O)N[C@@H](CCO)c2ccc(Cl)cc2)CCN(c2ncnc3[nH]ccc23)CC1 [Capivasertib] + C[C@@H]1COCCN1C2=NC(=NC(=C2)C3(CC3)[S@](=N)(=O)C)C4=C5C=CNC5=NC=C4 [AZD6738] (first compound max 10 µM, 7x7, partner max 10 µM) | -0.0179 | -0.0679 | -0.0397 | -0.0292 | -0.0093 | 0.0086 | -0.0499 | -0.0558 | -0.0847 | -0.0366 | -0.0337 | -0.0929 | -0.02 | -0.0139 | -0.0193 | -0.0009 | -0.0389 | -0.0414 | 0.0044 | 0.851
6 | NC1(C(=O)N[C@@H](CCO)c2ccc(Cl)cc2)CCN(c2ncnc3[nH]ccc23)CC1 [Capivasertib] + Cn1cnc2c(F)c(Nc3ccc(Br)cc3Cl)c(C(=O)NOCCO)cc21 [Selumetinib] (first compound max 10 µM, 7x7, partner max 10 µM) | 0.034 | -0.002 | 0.0429 | 0.0534 | -0.0017 | -0.0762 | 0.0087 | 0.0177 | 0.0691 | -0.0162 | -0.0652 | -0.0355 | 0.0677 | 0.059 | 0.0296 | 0.0041 | -0.0419 | -0.0321 | 0.0854 | 0.983
7 | CN(CCO)CC[C@H](CSc1ccccc1)Nc1ccc(S(=O)(=O)NC(=O)c2ccc(N3CCC([C@@H](O)c4ccccc4-c4ccc(Cl)cc4)CC3)cc2)cc1S(=O)(=O)C(F)(F)F [AZD4320] + C=CCn1c(=O)c2cnc(Nc3ccc(N4CCN(C)CC4)cc3)nc2n1-c1cccc(C(C)(C)O)n1 [AZD1775] (first compound max 1 µM, partner max 1 µM) | 0.102 | 0.0078 | 0.0539 | -0.0064 | -0.0023 | -0.0041 | -0.0417 | -0.0117 | 0.0126 | 0.0448 | -0.0058 | 0.0069 | 0.0252 | 0.0045 | 0.0367 | -0.0219 | -0.0525 | -0.0545 | 0.0733 | 0.956
8 | CC1(C)CCC(CN2CCN(c3ccc(C(=O)NS(=O)(=O)c4ccc(NCC5CCOCC5)c([N+](=O)[O-])c4)c(Oc4cnc5[nH]ccc5c4)c3)CC2)=C(c2ccc(Cl)cc2)C1 [Venetoclax] + Cn1cnc2c(F)c(Nc3ccc(Br)cc3Cl)c(C(=O)NOCCO)cc21 [Selumetinib] (first compound max 1 µM, 7x7, partner max 3 µM) | -0.0455 | -0.0459 | -0.0154 | -0.0161 | -0.0187 | -0.0402 | -0.042 | 0.0329 | -0.0202 | -0.0391 | -0.0478 | -0.0697 | 0.0783 | -0.0252 | -0.011 | 0.027 | -0.0484 | -0.0431 | 0.108 | 0.783
9 | NC1(C(=O)N[C@@H](CCO)c2ccc(Cl)cc2)CCN(c2ncnc3[nH]ccc23)CC1 [Capivasertib] + CCN(CCO)CCCOc1ccc2c(Nc3cc(CC(=O)Nc4cccc(F)c4)[nH]n3)ncnc2c1 [AZD2811] (first compound max 10 µM, 7x7, partner max 1 µM) | -0.0687 | 0.004 | 0.0426 | -0.0597 | -0.0168 | -0.0088 | -0.03 | 0.052 | -0.0289 | -0.0328 | -0.0095 | -0.0373 | -0.0086 | 0.0475 | -0.0052 | 0.025 | 0.0151 | -0.0297 | -0.103 | 0.727
10 | Cn1cnc2c(F)c(Nc3ccc(Br)cc3Cl)c(C(=O)NOCCO)cc21 [Selumetinib] + CCN(CCO)CCCOc1ccc2c(Nc3cc(CC(=O)Nc4cccc(F)c4)[nH]n3)ncnc2c1 [AZD2811] (first compound max 10 µM, 7x7, partner max 1 µM) | -0.0593 | 0.0445 | 0.0005 | -0.0374 | 0.0874 | -0.0412 | -0.0293 | 0.05 | 0.0103 | -0.033 | -0.0202 | -0.0745 | 0.0359 | -0.0657 | -0.017 | 0.01 | -0.057 | -0.0705 | 0.0553 | 0.951
11 | COc1nnc2ccc(N3CCC(c4ccc(OCCN5CCN(C)C(=O)[C@H]5C)cc4)CC3)nn12 [AZD5153] + CCN(CCO)CCCOc1ccc2c(Nc3cc(CC(=O)Nc4cccc(F)c4)[nH]n3)ncnc2c1 [AZD2811] (first compound max 1 µM, 7x7, partner max 1 µM) | -0.035 | -0.0611 | -0.0432 | -0.0934 | -0.0664 | -0.0334 | -0.0359 | 0.0574 | -0.054 | -0.0225 | -0.0224 | -0.052 | 0.0176 | -0.0288 | -0.0332 | -0.0026 | -0.0257 | -0.0335 | -0.028 | 0.935
12 | Cc1cc2ncnn2cc1Nc1ncc2c(n1)n(C1CCOCC1)c(=O)n2C [AZD7648] + C=CCn1c(=O)c2cnc(Nc3ccc(N4CCN(C)CC4)cc3)nc2n1-c1cccc(C(C)(C)O)n1 [AZD1775] (first compound max 10 µM, partner max 1 µM) | 0.0382 | -0.0686 | 0.0081 | 0.0302 | 0.0212 | 0.04 | 0.0283 | -0.0098 | 0.0028 | -0.0821 | -0.0316 | -0.0309 | -0.0255 | 0.0237 | 0.013 | -0.0572 | -0.0415 | -0.024 | 0.0174 | 0.799
13 | C[C@@H](c1ccc2nccn2c1)n1nnc2ncc(-c3cnn(C)c3)nc21 [Savolitinib] + CC1(C)CCC(CN2CCN(c3ccc(C(=O)NS(=O)(=O)c4ccc(NCC5CCOCC5)c([N+](=O)[O-])c4)c(Oc4cnc5[nH]ccc5c4)c3)CC2)=C(c2ccc(Cl)cc2)C1 [Venetoclax] (first compound max 1 µM, 7x7, partner max 1 µM) | 0.0023 | -0.09 | -0.0764 | -0.0494 | -0.0368 | 0.0006 | -0.0762 | -0.0139 | -0.0463 | -0.0321 | -0.0341 | -0.0448 | 0.0025 | -0.0394 | 0.0111 | 0.0439 | -0.0806 | -0.0775 | -0.0465 | 0.245
14 | Cc1c2c(nn1C)CSCc1cc(n(C)n1)CSc1cc(c3ccccc3c1)OCCCc1c(C(=O)O)n(C)c3c-2c(Cl)ccc13 [AZD5991] + Cc1cc2ncnn2cc1Nc1ncc2c(n1)n(C1CCOCC1)c(=O)n2C [AZD7648] (first compound max 1 µM, 7x7, partner max 10 µM) | -0.0376 | -0.0402 | 0.0031 | -0.0299 | -0.0615 | -0.0217 | -0.0462 | -0.0302 | -0.0342 | -0.0726 | 0.0011 | -0.0394 | -0.0165 | -0.0494 | -0.0042 | 0.0091 | -0.135 | 0.0585 | 0.0099 | 0.848
